# Assay results from patent publication US12623942B2, “Method for extracting salts and temperature- regenerated extracting composition” (ADIONICS, priority 2016, dated 2026).
# Experiments:
# [1] = Selective extraction from a mixture of NaCl, CaCl2, SrCl2 and BaCl2; conditions: 0.1 Mol/L CEM2 in ASM2/ASM1 60/40 by volume, RT
# Protocol: A brine containing a mixture of NaCl, CaCl2, SrCl2 and BaCl2 is made as described above. The dissolved salt concentrations are indicated in table VIII in mMol/L. The extraction was carried out a second time with changed divalent salt concentrations.
# The extracting composition consists of 0.1 Mol/L of CEM2 and of a mixture of two ASMs. This mixture is composed of ASM2 which is usually referred to as [3,5-Bis(Trifluoromethyl)benzyl Alcohol] (35TFMBnOH) of CAS #: 32707-89-4, up to 60% by volume, and of ASM1, referred to as [3-(Trifluoromethyl)benzyl Alcohol](3TFMBnOH), of molecular formula C8H7F3O of MW=176.14 g/Mol and of CAS #: 349-75-7, up to 40% by volume, both serving as a fluidizing agent and as an ASM given its liquid form.
# The extraction is carried out as described in example 1 and at room temperature.
# [2] = Regeneration (back-extraction) of the extracting composition charged with CaCl2
# Protocol: Two samples of the extracting composition of example 4 with the highest content of CaCl2 at 20° C. were contacted with a saline water at 1 Mol/L of CaCl2 at room temperature to increase the salt charging level of the dissolved CEM2 cation extracting molecules, and thus to get close to their salt saturation level (0.1 Mol/L). Then, these two samples were contacted with an iso-volume of distilled water at 20° C. and stirred. One of the two diphasic samples was then heated up to 80° C. and kept under stirring. The initial salt charging level being assessed at 80 mMol/L, it appears that the latter drops to 15.27 mMol/L from the first regeneration step at 80° C. whereas, during regeneration at 20° C., the salt residual concentration is 29.3 mMol/L. FIG. 4 illustrates the results obtained throughout several serial steps of contacting the hydrophobic organic liquid phase charged with salts with an iso-volume of distilled water. […] In use, this advantage seems to be even more significant when a resin with a high CEM content, and thus a high salt content, is implemented.
smiles,measurement,setting,value
"CCN(CC)C(=O)COc1c2cc(C(C)(C)C)cc1Cc1cc(C(C)(C)C)cc(c1OCC(=O)N(CC)CC)Cc1cc(C(C)(C)C)cc(c1OCC(=O)N(CC)CC)Cc1cc(C(C)(C)C)cc(c1OCC(=O)N(CC)CC)Cc1cc(C(C)(C)C)cc(c1OCC(=O)N(CC)CC)Cc1cc(C(C)(C)C)cc(c1OCC(=O)N(CC)CC)C2 [CEM2, 4-tert-butyl-Calix[6]arene hexakis(N,N-diethylacetamide)]",Final Concentration Sr^2+,"[1]; Table IX, initial 9.17",0 mmol/L
same,% extraction Sr^2+,"[1]; Table IX, initial 9.17 mMol/L",100%
same,Final Concentration Ca^2+,"[1]; Table IX, initial 9.25",0 mmol/L
same,% extraction Ca^2+,"[1]; Table IX, initial 9.25 mMol/L",100%
same,Final Concentration Ba^2+,"[1]; Table IX, initial 9.32",0 mmol/L
same,% extraction Ba^2+,"[1]; Table IX, initial 9.32 mMol/L",100%
same,Final Concentration Na^+,"[1]; Table IX, initial 196.04",195.9835 mmol/L
same,% extraction Na^+,"[1]; Table IX, initial 196.04 mMol/L",0%
same,ANIONS Cl− Final Concentration,"[1]; Table IX, initial 245.4",203.16 mmol/L
same,Final Concentration Sr^2+,"[1]; Table VIII, initial 4.29",0 mmol/L
same,% extraction Sr^2+,"[1]; Table VIII, initial 4.29 mMol/L",100%
same,Final Concentration Ba^2+,"[1]; Table VIII, initial 4.69",0 mmol/L
same,% extraction Ba^2+,"[1]; Table VIII, initial 4.69 mMol/L",100%
same,Final Concentration Ca^2+,"[1]; Table VIII, initial 29.13",0.4916 mmol/L
same,% extraction Ca^2+,"[1]; Table VIII, initial 29.13 mMol/L",98%
same,Final Concentration Na^+,"[1]; Table VIII, initial 193.52",199.4775 mmol/L
same,% extraction Na^+,"[1]; Table VIII, initial 193.52 mMol/L",0%
same,ANIONS Cl− Final Concentration,"[1]; Table VIII, initial 257.74",213.38 mmol/L
same,Salt residual concentration after regeneration,"[2]; 0.1 Mol/L CEM2 + 1 Mol/L ASM9 in 1,2-dichlorobenzene, initial charge 80 mMol/L CaCl2, iso-volume distilled water, 20° C.",29.3 mmol/L
same,Salt charging level after the first regeneration step,"[2]; 0.1 Mol/L CEM2 + 1 Mol/L ASM9 in 1,2-dichlorobenzene, initial charge 80 mMol/L CaCl2, iso-volume distilled water, 80° C.",15.27 mmol/L
same,"Reduction in the number of necessary regeneration steps, hot regeneration","[2]; 80° C. versus 20° C., same CaCl2 overall back-extraction rate",2 fold
